Experimental data reported in publication PMC12378234, “Enzyme-mediated aminoglycoside resistance without target mimicry” (Communications Chemistry, 2025).
Values joined by “and” are separate entries in the source; they are usually repeats but may differ in a detail not shown here. Identical values can stand only once. Like-named read-outs stand apart in the source and are kept apart here.

Columns and labels:
[1] = biological target: AAC(3)-XIa (Corynebacterium striatum, UniProt A0ABX7DED9); assay: Isothermal titration calorimetry; type: binding; details: 25 °C, with coenzyme A, n = 3
Protocol: (§1) To accurately measure protein ligand interactions, the concentration of our proteins of interest was measured spectrophotometrically using the NanoDrop OneC Spectrometer (Thermo Scientific). ITC experiments were performed on a MicroCal iTC 200 (General Electric) at 25 °C with stirring at 750 rpm. Unique buffer solutions were used for each enzyme. AAC(3)-Ia was prepared in 50 mM HEPES, pH 7, and 150 mM NaCl. AAC(3)-IIIa was prepared in 120 mM Tris, pH 7.5, and 150 mM NaCl. AAC(3)-XIa was prepared in 20 mM Tris, pH 7.5, and 150 mM NaCl. The cell contained 550 μM AAC(3)-Ia, 350 μM AAC(3)-IIIa, or 450 μM AAC(3)-XIa. All experiments also contained 5000 μM of coenzyme A trilithium salt in the cell. […] In all ITC experiments, aminoglycosides were prepared in the same buffering solution as the target protein. The ligands were injected 29 times ([…] per injection) with a 180 s interval between injections. Results were analyzed using ORIGIN software version 7E (MicroCal) using the molecular weight of a single protomer of each protein and fitted with a two-set of sites binding model (Supplementary Fig. 5). Data analysis was performed in Microsoft Excel and GraphPad5 software. One-way ANOVA and Tukey’s multiple comparison tests were used to determine the statistical significance of binding affinities.

[2] = biological target: T1, AAC(3)-IIIa (Pseudomonas aeruginosa, UniProt P29808); assay: Isothermal titration calorimetry; type: binding, P. aeruginosa
T1 construct: 6xHis-tag (thrombin-cleavable, pET15b) (N); made in house; host or cells: LOBSTR E. coli
T1 sequence (P29808 whole entry): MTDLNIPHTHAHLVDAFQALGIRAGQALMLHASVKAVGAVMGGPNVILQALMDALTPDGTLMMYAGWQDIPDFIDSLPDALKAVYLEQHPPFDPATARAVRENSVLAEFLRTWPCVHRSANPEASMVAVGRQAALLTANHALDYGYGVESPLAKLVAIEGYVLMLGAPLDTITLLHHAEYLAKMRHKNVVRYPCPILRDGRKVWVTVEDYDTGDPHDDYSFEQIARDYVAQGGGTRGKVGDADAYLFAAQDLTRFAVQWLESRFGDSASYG
Protocol: as §1

[3] = AAC(3)-XIa, second set of sites
[4] = first set of sites, 25 °C, with coenzyme A, n = 3
[5] = second set of sites, 25 °C, with coenzyme A, n = 3

How did the TΔS ([1]; AAC(3)-XIa, first set of sites) turn out when `CN[C@@H]1[C@@H](O)[C@@H](O[C@@H]2[C@@H](O)[C@H](O[C@H]3OC(CN)=CC[C@H]3N)[C@@H](N)C[C@H]2N)OC[C@]1(C)O` [Sisomicin, sisomicin] was run?
The TΔS was -4.51 ± 0.378 kcal/mol.

And the ΔG ([1]; AAC(3)-XIa, first set of sites)?
Its ΔG is -8.12 ± 0.53 kcal/mol.

And the ΔH ([1]; AAC(3)-XIa, first set of sites)?
Its ΔH is −12,600 ± 372 cal/mol.

What about the “N (sites)” value ([1]; AAC(3)-XIa, first set of sites, two-set of sites model) of the same compound?
Its value is 0.51 ± 0.01 sites.

What about the “N2 (sites)” value [1, 3] of the same compound?
The value was 0.36 ± 0.04 sites.

And the “TΔS 2” value [1, 3]?
Its value is 7.295 ± 1.615 kcal/mol.

What about the “ΔG 2” value [1, 3] of the same compound?
The value was -6.237 ± 2.237 kcal/mol.

What about the “ΔH 2” value [1, 3] of the same compound?
Its value is 1.058 ± 1.548 kcal/mol.

And the Kd ([1]; Kd2, AAC(3)-XIa, second set of sites)?
Its Kd is 27100 ± 4200 nM.

What about the Kd ([1]; Kd, AAC(3)-XIa, first set of sites, two-set of sites model) of the same compound?
The Kd was 1100 ± 20 nM.

And the TΔS [2, 4]?
The TΔS was -0.411 ± 0.318 kcal/mol.

What about the ΔG [2, 4] of the same compound?
The ΔG was -8.05 ± 0.474 kcal/mol.

And the ΔH [2, 4]?
The ΔH was -8.46 ± 0.351 kcal/mol.

What about the “N (sites)” value ([2]; first set of sites, two-set of sites model, 25 °C, with coenzyme A, n = 3) of the same compound?
Its value is 0.35 ± 0.03 sites.

What about the Kd ([2]; first set of sites, two-set of sites model, 25 °C, with coenzyme A, n = 3, read-out: Kd) of the same compound?
Its Kd is 1300 ± 100 nM.

And the Kd ([2]; individual replicates, raw data behind Fig. 6, read-out: Kd)?
The Kd was 1420 nM and 1170 nM and 1230 nM.

What about the “N2 (sites)” value [2, 5] of the same compound?
The value was 0.56 ± 0.04 sites.

And the “TΔS 2” value [2, 5]?
The value was 2 ± 0.146 kcal/mol.

And the “ΔG 2” value [2, 5]?
Its value is -7.74 ± 0.204 kcal/mol.

What about the “ΔH 2” value [2, 5] of the same compound?
Its value is -5.74 ± 0.143 kcal/mol.

What about the Kd ([2]; second set of sites, 25 °C, with coenzyme A, n = 3, read-out: Kd2) of the same compound?
Its Kd is 2100 ± 200 nM.
